Tested on: 997726-040-R-J2-PDC tumor spheroids, viability
Assay: Anticancer human tumor 997726-040-R-J2-PDC patient-derived squamous cell lung carcinoma cell line growth inhibition [PI3K]
Settings: spheroids with HUVEC and MSC; for viability, T/C: stronger effect = lower value
Summary of the method: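 Three cell types, namely tumor cells, endothelial cells and mesenchymal stem cells, formed each spheroid. Combinations with four PI3K inhibitors were screened at clinically achievable concentrations decreasing by half-log, and spheroid viability was recorded.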

[1] = curve of first compound, second compound 0.0316 µM
[2] = curve of first compound, second compound 0.1 µM
[3] = curve of first compound, second compound 0.316 µM
[4] = curve of first compound, second compound 1 µM
[5] = curve of first compound, second compound 3.16 µM
[6] = curve of first compound, second compound 10 µM
[7] = second compound 0.0316 µM, first compound 0.0316 µM
[8] = second compound 0.0316 µM, first compound 0.1 µM
[9] = second compound 0.0316 µM, first compound 0.316 µM
[10] = second compound 0.0316 µM, first compound 1 µM
[11] = second compound 0.0316 µM, first compound 3.16 µM
[12] = second compound 0.0316 µM, first compound 10 µM
[13] = second compound 0.1 µM, first compound 0.0316 µM
[14] = second compound 0.1 µM, first compound 0.1 µM
[15] = second compound 0.1 µM, first compound 0.316 µM
[16] = second compound 0.1 µM, first compound 1 µM
[17] = second compound 0.1 µM, first compound 3.16 µM
[18] = second compound 0.1 µM, first compound 10 µM
[19] = second compound 0.316 µM, first compound 0.0316 µM
[20] = second compound 0.316 µM, first compound 0.1 µM
[21] = second compound 0.316 µM, first compound 0.316 µM
[22] = second compound 0.316 µM, first compound 1 µM
[23] = second compound 0.316 µM, first compound 3.16 µM
[24] = second compound 0.316 µM, first compound 10 µM
[25] = second compound 1 µM, first compound 0.0316 µM
[26] = second compound 1 µM, first compound 0.1 µM
[27] = second compound 1 µM, first compound 0.316 µM
[28] = second compound 1 µM, first compound 1 µM
[29] = second compound 1 µM, first compound 3.16 µM
[30] = second compound 1 µM, first compound 10 µM
[31] = second compound 3.16 µM, first compound 0.0316 µM
[32] = second compound 3.16 µM, first compound 0.1 µM
[33] = second compound 3.16 µM, first compound 0.316 µM
[34] = second compound 3.16 µM, first compound 1 µM
[35] = second compound 3.16 µM, first compound 3.16 µM
[36] = second compound 3.16 µM, first compound 10 µM
[37] = second compound 10 µM, first compound 0.0316 µM
[38] = second compound 10 µM, first compound 0.1 µM
[39] = second compound 10 µM, first compound 0.316 µM
[40] = second compound 10 µM, first compound 1 µM
[41] = second compound 10 µM, first compound 3.16 µM
[42] = second compound 10 µM, first compound 10 µM
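Note: spheroids exposed to compounds for seven days before readout.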

In the case of `Cn1ncc(Cl)c1-c1cc(C(=O)NC(CN)Cc2cccc(F)c2)sc1Cl` (stereo not given), the viability, T/C (compound 0.0316 µM) is reported as 84.3% [middle of 4 runs], the viability, T/C (compound 0.1 µM) is reported as 46.1% [middle of 4 runs] and the viability, T/C (compound 0.316 µM) is reported as 27.1% [middle of 4 runs]. For the same compound, the viability, T/C (compound 1 µM) was 12.9% [middle of 4 runs], the viability, T/C (compound 3.16 µM) was 9.41% [middle of 4 runs] and the viability, T/C (compound 10 µM) was 12.4% [middle of 4 runs]. The IC50 (curve of compound) was 92.5 nM [middle of 4 runs].

`CC(C)NCC(C(=O)N1CCN(c2ncnc3c2C(C)CC3O)CC1)c1ccc(Cl)cc1` (stereo not given) + CC(Nc1ncnc2nc[nH]c12)c1cc2cccc(Cl)c2c(=O)n1-c1ccccc1 showed an IC50 [1] of 388 nM, an IC50 [2] of 400 nM and an IC50 [3] of 398 nM. For the same compound, the IC50 [4] was 297 nM, the IC50 [5] was 278 nM and the IC50 [6] was 55.6 nM. The viability, T/C [7] was 82.7%, the viability, T/C [8] was 74.3% and the viability, T/C [9] was 54.4%. For the same compound, the viability, T/C [10] was 29.7%, the viability, T/C [11] was 14.6% and the viability, T/C [12] was 10.8%. For the same compound, the viability, T/C [13] was 79.5%, the viability, T/C [14] was 85.4% and the viability, T/C [15] was 50.1%. It also gave a viability, T/C [16] of 31.6%, a viability, T/C [17] of 12.7% and a viability, T/C [18] of 10.7%. For the same compound, the viability, T/C [19] was 87.1%, the viability, T/C [20] was 87.3% and the viability, T/C [21] was 53.1%. For the same compound, the viability, T/C [22] was 27.4%, the viability, T/C [23] was 15.5% and the viability, T/C [24] was 9.73%. For the same compound, the viability, T/C [25] was 88.9%, the viability, T/C [26] was 69.2% and the viability, T/C [27] was 48.7%. For the same compound, the viability, T/C [28] was 32%, the viability, T/C [29] was 15% and the viability, T/C [30] was 9.4%. It also gave a viability, T/C [31] of 80.1%, a viability, T/C [32] of 69.6% and a viability, T/C [33] of 46.3%. The viability, T/C [34] was 28.3%, the viability, T/C [35] was 15.3% and the viability, T/C [36] was 10.8%. For the same compound, the viability, T/C [37] was 54.7%, the viability, T/C [38] was 42.8% and the viability, T/C [39] was 41.8%. It also gave a viability, T/C [40] of 27.3%, a viability, T/C [41] of 13.7% and a viability, T/C [42] of 9.38%.

`C[C@@H](NC(=O)c1ncnc(N)c1Cl)c1ncc(C(=O)Nc2cc(C(F)(F)F)c(Cl)cn2)s1` + CC(Nc1ccc2c(c1)OCCn1cc(N3C(=O)OCC3C(F)F)nc1-2)C(N)=O was tested, and the IC50 (curve of first compound, second compound 0.00316 µM) was greater than 10000 nM, the IC50 (curve of first compound, second compound 0.01 µM) was greater than 10000 nM and the IC50 [1] was 6260 nM. The IC50 [2] was 4170 nM, the IC50 [3] was less than 31.6 nM and the IC50 [4] was less than 31.6 nM. The viability, T/C (second compound 0.00316 µM, first compound 0.0316 µM) was 92.1%, the viability, T/C (second compound 0.00316 µM, first compound 0.1 µM) was 122% and the viability, T/C (second compound 0.00316 µM, first compound 0.316 µM) was 104%. The viability, T/C (second compound 0.00316 µM, first compound 1 µM) was 100%, the viability, T/C (second compound 0.00316 µM, first compound 3.16 µM) was 85.3% and the viability, T/C (second compound 0.00316 µM, first compound 10 µM) was 60.4%. It also gave a viability, T/C (second compound 0.01 µM, first compound 0.0316 µM) of 89.5%, a viability, T/C (second compound 0.01 µM, first compound 0.1 µM) of 95.2% and a viability, T/C (second compound 0.01 µM, first compound 0.316 µM) of 93.5%. It also gave a viability, T/C (second compound 0.01 µM, first compound 1 µM) of 93.7%, a viability, T/C (second compound 0.01 µM, first compound 3.16 µM) of 80.7% and a viability, T/C (second compound 0.01 µM, first compound 10 µM) of 58.3%. For the same compound, the viability, T/C [7] was 67%, the viability, T/C [8] was 80.4% and the viability, T/C [9] was 66.1%. The viability, T/C [10] was 61.9%, the viability, T/C [11] was 57.9% and the viability, T/C [12] was 45.3%. It also gave a viability, T/C [13] of 55%, a viability, T/C [14] of 53.7% and a viability, T/C [15] of 58.3%. The viability, T/C [16] was 58.3%, the viability, T/C [17] was 51.8% and the viability, T/C [18] was 40.5%. For the same compound, the viability, T/C [19] was 42.3%, the viability, T/C [20] was 39.3% and the viability, T/C [21] was 37.1%. It also gave a viability, T/C [22] of 41%, a viability, T/C [23] of 39.2% and a viability, T/C [24] of 30.7%. It also gave a viability, T/C [25] of 34%, a viability, T/C [26] of 33.8% and a viability, T/C [27] of 33.6%. For the same compound, the viability, T/C [28] was 35.5%, the viability, T/C [29] was 33.6% and the viability, T/C [30] was 24.1%.

`CC(C)NCC(C(=O)N1CCN(c2ncnc3c2C(C)CC3O)CC1)c1ccc(Cl)cc1` (stereo not given) + Cc1nc(NC(=O)N2CCCC2C(N)=O)sc1-c1ccnc(C(C)(C)C(F)(F)F)c1 was tested, and the IC50 [1] was 269 nM, the IC50 [2] was 269 nM and the IC50 [3] was 120 nM. For the same compound, the IC50 [4] was less than 31.6 nM, the IC50 [5] was less than 31.6 nM and the IC50 [6] was less than 31.6 nM. It also gave a viability, T/C [7] of 73.4%, a viability, T/C [8] of 65.9% and a viability, T/C [9] of 47.7%. It also gave a viability, T/C [10] of 23.8%, a viability, T/C [11] of 12.7% and a viability, T/C [12] of 8.8%. The viability, T/C [13] was 71.6%, the viability, T/C [14] was 66.8% and the viability, T/C [15] was 46.6%. It also gave a viability, T/C [16] of 25.9%, a viability, T/C [17] of 15.2% and a viability, T/C [18] of 10.6%. For the same compound, the viability, T/C [19] was 55.9%, the viability, T/C [20] was 52.5% and the viability, T/C [21] was 39%. The viability, T/C [22] was 22.4%, the viability, T/C [23] was 11.2% and the viability, T/C [24] was 9.52%. The viability, T/C [25] was 49.5%, the viability, T/C [26] was 37.2% and the viability, T/C [27] was 34%. It also gave a viability, T/C [28] of 21%, a viability, T/C [29] of 10.5% and a viability, T/C [30] of 6.76%. It also gave a viability, T/C [31] of 33.2%, a viability, T/C [32] of 27.5% and a viability, T/C [33] of 25%. It also gave a viability, T/C [34] of 16.5%, a viability, T/C [35] of 7.98% and a viability, T/C [36] of 4.28%. The viability, T/C [37] was 15.8%, the viability, T/C [38] was 10.9% and the viability, T/C [39] was 10.7%. The viability, T/C [40] was 5.86%, the viability, T/C [41] was 3.95% and the viability, T/C [42] was 3.36%.

Compound `Cn1nccc1Nc1nccc(-c2ccn(C(CO)c3ccc(Cl)c(F)c3)c(=O)c2)n1` (stereo not given) + Cc1nc(NC(=O)N2CCCC2C(N)=O)sc1-c1ccnc(C(C)(C)C(F)(F)F)c1 has an IC50 [1] of 6270 nM, an IC50 [2] of 307 nM and an IC50 [3] of 59.9 nM. It also gave an IC50 [4] of less than 31.6 nM, an IC50 [5] of less than 31.6 nM and an IC50 [6] of less than 31.6 nM. It also gave a viability, T/C [7] of 72.8%, a viability, T/C [8] of 72.3% and a viability, T/C [9] of 63.3%. The viability, T/C [10] was 65.4%, the viability, T/C [11] was 55% and the viability, T/C [12] was 46.1%. For the same compound, the viability, T/C [13] was 64.7%, the viability, T/C [14] was 75.7% and the viability, T/C [15] was 48.3%. The viability, T/C [16] was 52%, the viability, T/C [17] was 49.3% and the viability, T/C [18] was 48.1%. The viability, T/C [19] was 55.4%, the viability, T/C [20] was 44.4% and the viability, T/C [21] was 43%. The viability, T/C [22] was 34.9%, the viability, T/C [23] was 38.7% and the viability, T/C [24] was 33%. For the same compound, the viability, T/C [25] was 41.9%, the viability, T/C [26] was 36.8% and the viability, T/C [27] was 32.7%. It also gave a viability, T/C [28] of 30.2%, a viability, T/C [29] of 28% and a viability, T/C [30] of 23.3%. It also gave a viability, T/C [31] of 29.8%, a viability, T/C [32] of 27.7% and a viability, T/C [33] of 23.2%. It also gave a viability, T/C [34] of 28.3%, a viability, T/C [35] of 27% and a viability, T/C [36] of 16.1%. It also gave a viability, T/C [37] of 17.1%, a viability, T/C [38] of 12.8% and a viability, T/C [39] of 15.8%. The viability, T/C [40] was 14.3%, the viability, T/C [41] was 17.2% and the viability, T/C [42] was 7.87%.

— PubChem BioAssay AID1963964 (Molecular Pharmacology Branch, DTP, NCI, 2024)
